In US20220218806A1, “PEPTIDES AND CONJUGATES FOR TREATMENT OF ARTHRITIS” (CRL-SCI Corporation, priority 2019, published 2022):
“Also recorded” adds a separate entry of the source. Where two headings read alike, the source gives them in different places. Square brackets hold non-standard residues; d marks the D form. Ends that are not written are not given here. Cit = NC(=O)NCCC[C@H](N)C(=O)O

Experiments:
[1] = test system: GIA model of RA; experiment: Visual arthritis score (VAS) after therapeutic LEAPS vaccination in rhG1-induced arthritis; assay type: in vivo, BALB/c mice; details: overall conclusion
[2] = test system: CD4+ spleen T cells; experiment: Intracellular cytokines and FoxP3 in spleen T cells by flow cytometry; assay type: cell-based, BALB/c mice
Description: (§1) Animals were euthanized on day 35 after the first control or LEAPS vaccination, and sera was collected. For histopathology, hind limbs (from 5 mice/treatment groups plus 3 normal mice limbs) were dissected and fixed in 10% buffered formalin. The specimens were embedded in paraffin and sectioned. Adjacent tissue sections were stained separately with TB and HE. Microscopic analysis and scoring of joint damage were carried out independently under code by Bolder BioPath. Serum anti-LEAPS peptide antibody levels were determined by ELISA using Neutavidin plates and Biotin labeled peptides for loading onto plates. To determine cytokine production by spleen cell cultures, after a 4-day stimulation of spleen cells with 7.5 μg/ml rhG1 (or no treatment as control), cytokines secreted into the culture media were assayed by MagPix as 9-plex or 6-plex kits from R&D Systems. For intracellular cytokines and FoxP3 detection, spleen cells from 5 mice from each group were cultured with rhG1 for 4 days. The cells were treated with PMA, ionomycin, and GolgiStop for 4 hours, stained for cell surface markers and intracellular cytokines or Foxp3. Samples were run on a FACS Canto flow cytometer and the results analyzed by FACS Diva software. Statistical analysis of data was done using GraphPad Prism 7 software package. Nonparametric and multiple comparison test were conducted as described. […]

[3] = in mice; cited from earlier work
[4] = in humans; cited from earlier work
[5] = test system: GIA model of RA; experiment: Histopathology of hind limbs (ankles, hind paws) of diseased mice after vaccination; assay type: in vivo, BALB/c mice
[6] = test system: spleen cells; experiment: Cytokines secreted by rhG1-stimulated spleen cell cultures (MagPix); assay type: cell-based, BALB/c mice; details: 7.5 μg/ml rhG1 4 days, stimulated less non-stimulated
Description: as §1

[7] = test system: beDerG-PG70, bePG275cit, beOVA-OR8, beDerG-PG275cit, bePG70, beDerG-GGG; experiment: Serum anti-LEAPS peptide antibody ELISA (biotinylated peptides on NeutrAvidin plates); assay type: in vivo, BALB/c mice; details: sera of vaccinated mice, day 35
[8] = ankles, 40x magnification, day 35
[9] = hind paws, digit joints, 16x magnification

With “GQEEKAGVVSTGLIGGGMDMCSAGWLADRSVR-NH2 [DerG-PG275]” the “Therapeutic effect / protection in the GIA model of RA” value [1] was “can provide protection alone” and the “Modulation of Th2, Treg, Th1 cells and cytokines” value ([2]; overall conclusion) was “does not appear to up modulate Th2 or Treg or Th1 cells or cytokines”.
For “MDMCSAGWLADCitSVR-amide (MDMCSAGWLAD[Cit]SVR-NH2; not fully specified) [PG275Cit]”, the Immunogenicity of epitope [3] is listed as “more immunogenic than PG275” and the Immunogenicity of epitope [4] is listed as “more immunogenic than PG275”.
In the case of “ATEGRVRVNSAYQDK-amide (ATEGRVRVNSAYQDK-NH2) [PG70, proteoglycan aggrecan (G1) residues 70-84]”, the Immunogenicity of epitope [3] is listed as “more immunogenic than PG70Cit”.
With “DGQEEKAGVVSTGLIGGGMDMCSAGWLADCitSVR-amide (DGQEEKAGVVSTGLIGGGMDMCSAGWLAD[Cit]SVR-NH2; not fully specified) [DerG-PG275Cit]” the “Cartilage damage, ankle histopathology” value [5, 8] was “mild”, the “Inflammation, ankle histopathology” value [5, 8] was “moderate” and the “Joints affected, ankle histopathology” value [5, 8] was “the ankle and several digit joints”. The “Joints affected, hind paw histopathology” value ([5]; hind paws, 16x magnification) was “several digit joints”, the “Cartilage damage, hind paw histopathology” value [5, 9] was “mild” and the “Inflammation, hind paw histopathology” value [5, 9] was “moderate”. For the same substance, the “Net secreted IFNγ” value [6] was “induced”, the “Net secreted IL17A” value [6] was “induced” and the “Serum antibodies to vaccine peptides (OD 450 nm)” value [7] was “does not induce antibodies to either DerG or PG275Cit or the conjugate; also recorded: induced antibodies against neither the DerG element nor the PG275Cit element”. For the same substance, the “Therapeutic effect / protection in the GIA model of RA” value [1] was “therapeutic in the GIA model of RA with high efficacy” and the “Treg cell activation (FoxP3)” value ([2]; CD4+ spleen T cells, rhG1 4 days) was “appeared to activate Treg cells”.
